According to patent US8822549B2, “Buffered oxygen therapeutic” (priority 2011, dated 2014):

Experiments:
hypoxic tumors [1] = conditions: administered systemically, oxygen via inhalation; published studies; cited from earlier work
hypoxic tumors [2] = test: Published studies: fluorocarbons as O2 delivery agents to sensitize hypoxic tumors to radiation therapy; assay type: in vivo; conditions: versus the liquid fluorocarbons fluosol and perfluoroctylbromide
Protocol: In these studies, fluorocarbons were administered systemically and oxygen was administered via inhalation to sensitize hypoxic tumors to radiation therapy. PFOB was effective at less than 1/100th the dose of the liquid fluorocarbons fluosol and […].

Structure (SMILES): FC(F)(F)C(F)(F)C(F)(F)C(F)(F)C(F)(F)C(F)(F)C(F)(F)C(F)(F)Br [PFOB, perfluoroctylbromide]
- Volume (dose as O2 delivery agent) (hypoxic tumors [1]): 0.002 to 0.015 L/kg
- g/kg (fluorocarbon dose as O2 delivery agent) (hypoxic tumors [1]): 2 to 15 g/kg
- effective dose as a fraction of the dose of liquid fluorocarbons (hypoxic tumors [2]): less than 1/100
